Laboratory results taken from publication PMC7415729 (Pharmacology, biochemistry, and behavior, 2020).
pEC50, pKi: −log10 of the molar value.

Tests used:
C57BL/6 mice [1] = test: Radiotelemetry of core temperature with 1-ABT pretreatment; format: in vivo, mouse
C57BL/6 mice [2] = test: Cannabinoid tetrad: locomotor activity; format: in vivo, mouse; settings: for decrease of locomotor activity below the vehicle control condition: highest tested dose
[3] = test system: HIM (human intestinal microsomes); test: Oxidative metabolism by human microsomes; format: in vitro ADME; settings: 50 μM 5F-AKB48, HIM 1 μg/μl, 60 min
[4] = test system: HBM (human brain microsomes); test: Oxidative metabolism by human microsomes; format: in vitro ADME; settings: 50 μM 5F-AKB48, HBM 1 μg/μl, 60 min
C57BL/6 mice [5] = test: Cannabinoid tetrad: catalepsy; format: in vivo, mouse
CB1 receptors [6] = biological target: T1, CB1 receptors (Mus musculus, UniProt P47746); test: [35S]GTPγS binding; settings: for pEC50: N=3
CB1 receptors [7] = biological target: T1, CB1 receptors; test: Competition receptor binding vs [3H]CP-55,940 in mouse brain membranes; settings: pKi, displacement of 0.2 nM [3H]CP-55,940, mouse brain membranes, N=3
[8] = test system: HLM (human liver microsomes); test: Oxidative metabolism by human microsomes; format: in vitro ADME; settings: 50 μM 5F-AKB48, mixed gender HLM 1 μg/μl, 60 min
C57BL/6 mice [9] = test: Cannabinoid tetrad: antinociception; format: in vivo, mouse; settings: for tail withdrawal latency, % of the maximum: maximal latency 10 sec
C57BL/6 mice [10] = test: Cannabinoid tetrad: hypothermia; format: in vivo, mouse; settings: for reduction of rectal temperature below the physiological range: highest tested dose
[11] = 5F-AKB48 3.2 mg/kg, mice pretreated with 100 mg/kg 1-ABT
[12] = 5F-AKB48 3.2 mg/kg, vehicle-pretreated mice
[13] = rimonabant 10.0 mg/kg i.p. before 3.2 mg/kg 5F-AKB48
[14] = rimonabant 10.0 mg/kg i.p. before 32 mg/kg Δ9-THC

T1 sequence (P47746 whole entry): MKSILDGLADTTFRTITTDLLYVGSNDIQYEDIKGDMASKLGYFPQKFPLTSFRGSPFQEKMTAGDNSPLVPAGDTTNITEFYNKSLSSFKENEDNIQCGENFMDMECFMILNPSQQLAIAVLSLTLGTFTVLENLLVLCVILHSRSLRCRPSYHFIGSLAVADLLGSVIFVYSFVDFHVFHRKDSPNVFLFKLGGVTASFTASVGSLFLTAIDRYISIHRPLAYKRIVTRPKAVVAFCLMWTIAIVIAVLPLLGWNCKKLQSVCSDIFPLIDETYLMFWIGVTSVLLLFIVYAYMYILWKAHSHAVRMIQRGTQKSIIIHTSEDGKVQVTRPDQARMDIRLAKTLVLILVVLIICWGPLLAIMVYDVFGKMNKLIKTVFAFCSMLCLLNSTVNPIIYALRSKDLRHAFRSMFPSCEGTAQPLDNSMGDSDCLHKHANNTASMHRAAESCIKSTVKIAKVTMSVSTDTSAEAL

Q: `Nn1nnc2ccccc21` [1-ABT, reference compound] was tested. Which “effect on core temperature” value (C57BL/6 mice [1]; 100 mg/kg 1-ABT alone, 2 hours) did it give?
A: no systematic changes in temperature

Q: For `O=C(NC12CC3CC(CC(C3)C1)C2)c1nn(CCCCCF)c2ccccc12` [5F-AKB48, N-(adamantan-1-yl)-1-(5-fluoropentyl)-1H-indazole-3-carboxamide], which “decrease of locomotor activity below the vehicle control condition” value (C57BL/6 mice [2]; 5F-AKB48 3.2 mg/kg i.p.) is on record?
A: approximately 5 fold

Q: And the “oxidative activity / metabolite production” value [3]?
A: significant amount of activity

Q: And the oxidative activity [4]?
A: did not show any activity

Q: And the “duration of hypothermic action” value (C57BL/6 mice [1]; [11])?
A: at least 12 hours

Q: What about the “minimum core temperature below the physiological range” value (C57BL/6 mice [1]; [11]) of the same compound?
A: approximately 7 °

Q: And the “minimum core temperature below the physiological range” value (C57BL/6 mice [1]; [12])?
A: approximately 7 °

Q: What about the “time by which hypothermic effects completely resolved” value (C57BL/6 mice [1]; [12]) of the same compound?
A: ≤ 4 h

Q: And the “area under the curve for hypothermic effects, 1-ABT-treated vs vehicle mice” value (C57BL/6 mice [1]; 5F-AKB48 3.2 mg/kg, 100 mg/kg 1-ABT pretreatment)?
A: approximately 5 fold

Q: What about the “time by which cataleptic effects largely resolved” value (C57BL/6 mice [5]; 5F-AKB48 3.2 mg/kg i.p.) of the same compound?
A: ≤ 3 h

Q: And the horizontal bar latency (C57BL/6 mice [5]; 5F-AKB48 3.2 mg/kg i.p., any time point, 30 sec cut-off)?
A: < 30 s

Q: What about the “G protein activation by 1 μM compound on co-incubation with rimonabant” value (CB1 receptors [6]; 1 μM compound + rimonabant 100 nM, mouse brain membranes) of the same compound?
A: complete reversal

Q: And the pEC50 (CB1 receptors [6]; pEC50, [35S]GTPγS binding, mouse brain membranes)?
A: 8.21

Q: What about the pEC50 (CB1 receptors [6]; potency (EC50), [35S]GTPγS binding, mouse brain membranes 25 μg) of the same compound?
A: 8.11

Q: What about the Emax (CB1 receptors [6]; read-out: Emax, increase of [35S]GTPγS binding) of the same compound?
A: 182%

Q: What about the pKi (CB1 receptors [7]) of the same compound?
A: 9.18

Q: And the “production of hydroxylated metabolites” value [8]?
A: highest amount

Q: And the “duration of antinociceptive effects (still apparent)” value (C57BL/6 mice [9]; 5F-AKB48 3.2 mg/kg i.p.)?
A: at least 6 hours

Q: And the “tail withdrawal latency, % of the maximum” value (C57BL/6 mice [9]; 5F-AKB48 3.2 mg/kg i.p., by 15 min post-injection)?
A: approximately 90%

Q: What about the “time by which hypothermic effects completely resolved” value (C57BL/6 mice [10]; 5F-AKB48 3.2 mg/kg i.p.) of the same compound?
A: ≤ 4 h

Q: And the “reduction of rectal temperature below the physiological range” value (C57BL/6 mice [10]; 5F-AKB48 3.2 mg/kg i.p.)?
A: approximately 4 °

Q: With `Cc1c(C(=O)NN2CCCCC2)nn(-c2ccc(Cl)cc2Cl)c1-c1ccc(Cl)cc1` [rimonabant] as the compound, how does the “effect of prior rimonabant on hypolocomotor effects of 5F-AKB48” value (C57BL/6 mice [2]; [13]) read?
A: partially attenuated

Q: What about the “effect of prior rimonabant on hypolocomotor effects of Δ9-THC” value (C57BL/6 mice [2]; [14]) of the same compound?
A: partially attenuated

Q: What about the “effect of prior rimonabant on cataleptic effects of 5F-AKB48” value (C57BL/6 mice [5]; [13]) of the same compound?
A: completely blocked

Q: And the “effect of prior rimonabant on cataleptic effects of Δ9-THC” value (C57BL/6 mice [5]; [14])?
A: completely blocked

Q: And the “effect of prior rimonabant on antinociceptive effects of 5F-AKB48” value (C57BL/6 mice [9]; [13])?
A: completely blocked

Q: What about the “effect of prior rimonabant on antinociceptive effects of Δ9-THC” value (C57BL/6 mice [9]; [14]) of the same compound?
A: completely blocked

Q: And the “effect of prior rimonabant on hypothermic effects of 5F-AKB48” value (C57BL/6 mice [10]; [13])?
A: completely blocked

Q: And the “effect of prior rimonabant on hypothermic effects of Δ9-THC” value (C57BL/6 mice [10]; [14])?
A: completely blocked

Q: With `CCCCCc1cc(O)c2c(c1)OC(C)(C)[C@@H]1CCC(C)=C[C@@H]21` [Δ^9-THC, Δ^9-tetrahydrocannabinol] as the compound, how does the “decrease of locomotor activity below the vehicle control condition” value (C57BL/6 mice [2]; Δ9-THC 32 mg/kg i.p.) read?
A: approximately 5 fold

Q: And the “duration of cataleptic effects (still apparent)” value (C57BL/6 mice [5]; Δ9-THC 32 mg/kg i.p.)?
A: ≥ 6 h

Q: What about the horizontal bar latency (C57BL/6 mice [5]; Δ9-THC 32 mg/kg i.p., by 15 min post-injection, 30 sec maximum) of the same compound?
A: ~30 s

Q: And the “duration of antinociceptive effects (still apparent)” value (C57BL/6 mice [9]; Δ9-THC 32 mg/kg i.p.)?
A: at least 6 hours

Q: And the “tail withdrawal latency, % of the maximum” value (C57BL/6 mice [9]; Δ9-THC 32 mg/kg i.p., by 30 min post-injection)?
A: approximately 90%

Q: What about the “duration of hypothermic effects (still apparent after drug administration)” value (C57BL/6 mice [10]; Δ9-THC 32 mg/kg i.p.) of the same compound?
A: ≥ 6 h

Q: What about the “reduction of rectal temperature below the physiological range” value (C57BL/6 mice [10]; Δ9-THC 32 mg/kg i.p.) of the same compound?
A: approximately 4 °
